Measurements taken from patent US20160296644A1, “ANTICANCER DRUG, COMPRISING A COPPER RADIOISOTOPE” (priority 2013, published 2016).

Legend:
[1] = test system: DNA of the cancer cell; assay: Laboratory experimental tests of Auger radioactive effect on cancer cells; conditions: dosage 1.5 Bq for each cell
Description: Said dosage is equal to a 1.5 Bq (Becquerel) for each cell, a quantity such that the therapeutic effectiveness of the drug is carried out through the expression of the toxicity thereof only inside the nucleus, achieving a true target therapy.

[2] = test system: amyloid plaques; assay: Use against Alzheimer's disease (radiotracer / therapeutic agent)
From the text: In fact, it is capable of binding to the amyloid plaques, the accumulation whereof within the nerve cells characterises the presence of the pathology, and catalyses its formation process. By crossing the blood-brain barrier, the deposit of the subject drug is suitably identified inside said amyloid plaques, providing a diagnostic feedback beyond all doubts.
In fact, the drug, by binding to said amyloid plaques, initially stabilises the growth thereof, to then slower it by braking such “drug-plaque” bonds.

[3] = test system: solid tumours, neuroendocrine tumours, melanomas, leukaemias and lymphomas; assay: Therapeutic effectiveness in cancer pathologies; conditions: solid tumours (pancreas, prostate, brain, breast, ovary, head-neck, oesophagus, stomach, intestines, colon, liver, lung)

## [64Cu+2].[Cl-].[Cl-] [64CuCl2, copper-64 chloride]
[1]
  Auger radioactive effect on DNA of the cancer cell: capable of destroying the DNA of the cancer cell
  volume of the tumoural lesions in solid tumours: reducing the volume of the tumoural lesions in solid tumours
[2]; average dose 3,700 MBq
  therapeutic agent against neuronal cells affected by the Alzheimer's disease: carries out the function of therapeutic agent
[2]; average dose of 370 MBq
  radiotracer for the diagnosis of the Alzheimer's disease: capable of acting as a radiotracer
[3]
  effectiveness as a therapeutic agent for cancer pathologies: effective
